Source: paper PMC5748751, “Study of Structure and Permeability Relationship of Flavonoids in Caco-2 Cells” (Nutrients, 2017)
Read-outs that look alike come from different tables or passages of the source. Marks after values point to notes of the source that are not given here.

Tests used:
[1] = Permeability (bidirectional transport) of flavonoids in Caco-2 cell monolayers; format: in vitro ADME; conditions: human; for Papp A→B at 60 min, 40 μM: Caco-2, apical to basolateral; for Papp A→B at 60 min, 40 μM / Papp B→A at 60 min, 40 μM: incubation 60 min, 37 °C, D-Hank's pH 7.4, mean ± SD, n = 3–6; for Papp B→A at 60 min, 40 μM: Caco-2, basolateral to apical; for efflux ratio at 60 min, 40 μM: pH 7.4, Caco-2 monolayer, read-out: Ratiop (ratio of Papp B to A to Papp A to B); for Papp at 1 h, 40 μM: Caco-2 monolayer
Experimental: Caco-2 cells were cultured in MEM supplemented with 10% FBS, 1% NEAA, penicillin (100 U/mL) and streptomycin (100 μg/mL) in an atmosphere of 5% CO2 and 90% relative humidity at 37 °C. All cells used in this study were between passages 35 and 45 [16].
Caco-2 cells were seeded at a density of about 8 × 10^4 cells/cm^2 on a 12 wells Millicell hanging insert and left to grow for 19–21 days to reach confluence. Culture medium was replaced every other day for 14 days and daily thereafter. The integrity and transport ability of the Caco-2 cells monolayer were examined by measuring the trans-epithelial electrical resistance (TEER) with a Millicell voltammeter (Millicell ERS-2, Merck Millipore, Billerica, MA, USA) and running standard assays using Lucifer yellow CH as paracellular flux marker. […] Differentiation of Caco-2 cells was checked after 4 and 12 days by determining the activity of alkaline phosphatase with an assay kit (Nanjing Jiancheng Bioengineering Institute, Nanjing, China) and after 21 days transmission electron microscopy was performed on Caco-2 monolayer to evaluate differentiation.
The Caco-2 cell monolayer was washed with D-Hank’s buffer (pH 7.4). Then, the flavonoid (40 μM) was added to either the apical (AP, 0.4 mL) or basolateral (BL, 1.95 mL) side, while the receiving chamber contained the corresponding volume of D-Hank’s buffer and incubated for 1 h at 37 °C. Solutions from both AP and BL sides of Caco-2 cell monolayer were collected and immediately frozen, lyophilized and preserved at −80 °C for high performance liquid chromatography (HPLC) analysis. Papp was calculated from Equation (1), where ΔQ/Δt is the rate of the flavonoid on the accepting chamber (μM/s), A is the surface area of the hanging insert (cm^2) and C0 is the initial concentration of tested flavonoid in donating chamber (μM/mL).(1) Papp=ΔQ/Δt/AC0

[2] = Cell viability (MTT) assay of flavonoids in Caco-2 cells; format: cell-based; conditions: human
Experimental: The cytotoxicity of flavonoids and colchicine was evaluated by MTT assay. The cells were grown in 96-well plates at a density of 1 × 10^4 cells/well. After incubation with 40 μM flavonoid for 24 h, the cells were further incubated with an MTT solution (0.5 mg/mL) for 4 h at 37 °C. Finally, after removal of the supernatant, 150 μL dimethyl sulphoxide was added to each well to dissolve crystallized MTT. Absorbance was read at 570 nm with a multiskan spectrum microplate reader (Thermo Labsystems, Waltham, MA, USA). The percentage cell viability relative to that of the control cells was used as the cytotoxicity measure.

Caco-2 cell monolayer [3] = experiment: Cellular accumulation (CA) of flavonoids in Caco-2 cell monolayer; conditions: for Ratioc (ratio of CA B to A to CA A to B): Caco-2 monolayer; for CA A to B: accumulated in cell monolayer after transport apical to basolateral; for CA A to B / CA B to A: 40 μM, 1 h, normalized to cellular protein, mean ± SD, n = 3; for CA B to A: accumulated in cell monolayer after transport basolateral to apical; for CA: both sides (CA A to B and CA B to A)
Experimental: (§1) After the collection of samples from both AP and BL sides, the hanging insert was rinsed twice with ice-cold D-Hank’s buffer to stop further transport, and lysed with 0.1% Triton X-100 in D-Hank’s buffer then placed in an ultrasonic bath for 15 min. Cell lysates were collected and centrifuged at 7000× g for 10 min. Supernatants were analyzed by BCA kit (Dingguochangsheng Biotechnology, Beijing, China) for protein content. After protein content assay, supernatants were immediately frozen, lyophilized and preserved at −80 °C. The flavonoid concentration in lysis solution was determined by HPLC and normalized with cellular protein content.
(§2) To determine both the permeability and CA of flavonoids in Caco-2 cells, the lyophilized samples were dissolved in running 120 to 200 μL methanol, and centrifuged at 7000× g for 5 min. Aliquot of 20 μL of the supernatant solution was used for assay using Waters e2695 HPLC system (Milford, MA, USA) fitted with an Amethyst C18-H column (250 mm × 4.6 mm i.d., 5 μm; Sepax, Newark, DE, USA). The mobile phase consisted of A (0.01 M phosphoric acid (H3PO4))/B (acetonitrile) with 1.0 mL/min flow rate. […] Peak area measurement was used to obtain standard calibration curves to determine concentration of each flavonoid.

[4] = Stability of flavonoids in D-Hank's buffer relative to methanol; format: physicochemical; conditions: 20 μM flavonoid, HPLC peak area in D-Hank's / peak area in methanol × 100%
Experimental: The relative stability was expressed as the relative appearance of flavonoids in different solvents. Each flavonoid (20 μM) was dissolved in two different solvents, D-Hank’s and methanol. […] Relative concentration in D-Hank’s (%) = Peak area in D-Hank’s/Peak area in methanol × 100%(3)

Caco-2 cell monolayer [5] = conditions: human, Caco-2, 1 h, 40 μM, pH 7.4
Experimental: as §1, §2

[6] = Recovery (mass balance) of flavonoids during Caco-2 transport assay; format: in vitro ADME; conditions: human, Caco-2, mass balance, both sides of insert plus cells
Experimental: The recovery of the flavonoid glycosides during the transport assays was determined by mass balance and was measured as total amount of the flavonoids on both sides of the insert and in the Caco-2 cells.

[7] = Caco-2, pH 7.4, as stated in text, direction not specified (bilateral)
[8] = transport apical to basolateral, read-out: Recovery (A to B, %)
[9] = transport basolateral to apical, read-out: Recovery (B to A, %)
[10] = pH 7.4, direction not specified (bilateral)

Row | SMILES | Papp A→B at 60 min, 40 μM [1] | Papp B→A at 60 min, 40 μM [1] | efflux ratio at 60 min, 40 μM [1] | viability at 24 h, 40 μM [2] | Ratioc (ratio of CA B to A to CA A to B) (Caco-2 cell monolayer [3]) | CA A to B (Caco-2 cell monolayer [3]) | CA B to A (Caco-2 cell monolayer [3]) | Relative concentration of flavonoids, D-Hank's/methanol (%) [4] | Papp at 1 h, 40 μM [1, 7] | CA (Caco-2 cell monolayer [5]) | Relative concentration of flavonoids, D-Hank's/methanol (%) ([4]; listed as chrysin) | CA (Caco-2 cell monolayer [3]) | recovery [6, 8] | recovery [6, 9] | Papp at 1 h, 40 μM [1, 10]
1 | O=c1cc(-c2ccc(O)c(O)c2)oc2cc(O)cc(O)c12 [Compound 5, Luteolin] | 10.1 ± 7.33 ×10⁻⁶ cm/s | 21.4 ± 2.12 ×10⁻⁶ cm/s | 2.12 | 101 ± 4.19% | 2.23 | 3.876 ± 0.741 µmol/g | 8.639 ± 1.275 ^b μmol/g | 87.51% |  |  |  |  |  |  | 
2 | O=c1cc(-c2ccc(O)cc2)oc2cc(O)cc(O)c12 [Compound 6, Apigenin] | 17.1 ± 1.72 ×10⁻⁶ cm/s | 16.9 ± 1.02 ×10⁻⁶ cm/s | 0.99 | 101 ± 4.56% | 1.72 | 4.415 ± 0.467 µmol/g | 7.610 ± 0.694 ^b μmol/g | 41.76% |  |  |  |  |  |  | 
3 | O=C1C[C@@H](c2ccc(O)cc2)Oc2cc(O)ccc21 [Compound 21, Liquiritigenin] | 31 ± 0.8 ×10⁻⁶ cm/s | 37 ± 1.97 ×10⁻⁶ cm/s |  | 101 ± 4.27% |  | 0.635 ± 0.146 µmol/g | 1.234 ± 0.249 ^a μmol/g |  | > 30 ×10⁻⁶ cm/s | < 5 µmol/g |  |  |  |  | 
4 | O=c1cc(-c2ccccc2)oc2cc(O)cc(O)c12 [Compound 7, Chrysin] | 6.78 ± 0.12 ×10⁻⁶ cm/s | 8.41 ± 0.62 ×10⁻⁶ cm/s | 1.24 | 103 ± 4.94% | 2.26 | 3.902 ± 0.251 µmol/g | 8.828 ± 0.213 ^b μmol/g | 47.63% |  |  | less than 50% |  |  |  | 
5 | COc1ccc(-c2cc(=O)c3c(OC)c(OC)c(OC)c(OC)c3o2)cc1 [Compound 2, Tangertin] | 21.9 ± 0.585 ×10⁻⁶ cm/s | 23.9 ± 0.45 ×10⁻⁶ cm/s | 1.1 | 97.5 ± 3.53% | 0.90 | 2.706 ± 0.174 µmol/g | 2.423 ± 0.543 µmol/g | 12.09% |  |  |  |  |  |  | 
6 | O=c1cc(-c2ccccc2)oc2ccccc12 [Compound 1, Flavone] | 22.4 ± 1.37 ×10⁻⁶ cm/s | 21.7 ± 1.21 ×10⁻⁶ cm/s | 0.97 | 96.3 ± 9.79% | 1.65 | 1.932 ± 0.051 µmol/g | 3.183 ± 0.504 ^a μmol/g | 60.10% |  |  |  |  |  |  | 
7 | C[C@@H]1O[C@@H](OC[C@H]2O[C@@H](Oc3c(-c4ccc(O)c(O)c4)oc4cc(O)cc(O)c4c3=O)[C@H](O)[C@@H](O)[C@@H]2O)[C@H](O)[C@H](O)[C@H]1O [Compound 17, Rutin] | 4.04 ± 0.07 ×10⁻⁶ cm/s | 4.28 ± 0.44 ×10⁻⁶ cm/s |  | 106 ± 5.48% |  |  |  | 66.82% | < 6 ×10⁻⁶ cm/s |  |  | not detected | 98.2 ± 4.74% | 97 ± 1.67% | 
8 | O=c1c(-c2ccc(O)cc2)coc2c([C@@H]3O[C@H](CO)[C@@H](O)[C@H](O)[C@H]3O)c(O)ccc12 [Compound 24, Puerarin] | 2.25 ± 0.96 ×10⁻⁶ cm/s | 2.7 ± 0.41 ×10⁻⁶ cm/s |  | 105 ± 6.13% |  |  |  | 30.31% | < 6 ×10⁻⁶ cm/s |  |  | not detected | 87.4 ± 3.31% | 85.25 ± 0.6% | 
9 | O=C1C[C@@H](c2ccc(O)cc2)Oc2cc(O)cc(O)c21 [Compound 19, Naringenin] | 32.1 ± 2.98 ×10⁻⁶ cm/s | 35.3 ± 1.16 ×10⁻⁶ cm/s | 1.1 | 95.6 ± 3.47% | 2.29 | 1.935 ± 0.305 µmol/g | 4.436 ± 0.299 ^b μmol/g | 113.93% | > 30 ×10⁻⁶ cm/s |  |  | < 5 µmol/g |  |  | 
10 | O=c1c(O)c(-c2cc(O)c(O)c(O)c2)oc2cc(O)cc(O)c12 [Compound 14, Myricetin] | 0.29 ± 0.01 ×10⁻⁶ cm/s | 0.44 ± 0.01 ×10⁻⁶ cm/s | 1.5 | 101 ± 3.15% |  |  |  | lower than 40% |  |  |  | not detected |  |  | < 0.5 ×10⁻⁶ cm/s
11 | O=c1c(O)c(-c2ccc(O)c(O)c2)oc2cc(O)cc(O)c12 [Compound 10, Quercetin] | 2.55 ± 1.45 ×10⁻⁶ cm/s | 4.68 ± 0.41 ×10⁻⁶ cm/s | 1.84 | 102 ± 5.19% |  |  |  | 52.10% |  |  |  |  |  |  | 
12 | COc1ccc([C@@H]2CC(=O)c3c(O)cc(O)cc3O2)cc1O [Compound 18, Hesperetin] | 23.5 ± 0.85 ×10⁻⁶ cm/s | 27.9 ± 2.76 ×10⁻⁶ cm/s | 1.19 | 100 ± 2.7% | 1.27 | 1.293 ± 0.086 µmol/g | 1.644 ± 0.300 µmol/g | 115.83% | > 20 ×10⁻⁶ cm/s |  |  |  |  |  | 
13 | C[C@@H]1O[C@@H](Oc2c(-c3ccc(O)c(O)c3)oc3cc(O)cc(O)c3c2=O)[C@H](O)[C@H](O)[C@H]1O [Compound 16, Quercitrin] | 4.24 ± 1.25 ×10⁻⁶ cm/s | 5.96 ± 1.2 ×10⁻⁶ cm/s |  | 98.4 ± 3.86% |  |  |  | 116.67% |  |  |  | not detected | 90.7 ± 8.85% | 76.8 ± 9.36% | < 6 ×10⁻⁶ cm/s
